This is an account of results in patent publication US6503941B2, “Ferulic ester derivative, 3,9-diferulylcoumestrol and cosmetic product containing same” (Hanbul Cosmetics Co., Ltd., priority 2000, dated 2003).

In series [1] the test system is human-derived fibroblast(ATCC, Hs68). As to the kind of experiment: Cell toxicity and activity, MTT. It counts as cell-based. The note with it: for Cell activity: at LD50. As to the method:
Test cells of human-derived fibroblast(ATCC, Hs68) were cultivated in DMEM medium added by 10% FBS at 37° C. in the condition of 5%CO2, 100% humidity. 1×10^5 cells/ml of cells were seeded in 96 plate and incubated at 37° C. for 24 hr. Samples sterilized by 0.2 µm filter were added according to the fixed concentration and further incubated at 37° C. for 24 hr. Then, MTT regent was added and incubated at 37° C. for 4 hr, then the culture solution was removed. After, 1N NaOH isopropane solution was added and stirred for 20 min, the absorbance at 565 nm was measured. Then, the cell apoptosis concentration was determined by comparing the untreated cell (survival ratio: 100%).
Cell activity at LD50 was 20%, which was satisfactory level.

For a further series, the system named is tyrosinase. Nature of the series: Tyrosinase inhibition effect (whitening activity). It counts as biochemical. The note with it: 0.1%(wt/wt) sample solution; tyrosine 0.2 mg/ml, tyrosinase 680 units/ml, 37° C. As to the method: And whitening activity and anti-oxidant activity were measured by determining tyrosinase inhibition effect and using NBT method. 0.1% vitamin C, 0.1% vitamin E, kojic acid and albutin were used as sample. […] A solution for blank test was tyrosine 1 ml+phosphoric acid buffer 1 ml+distilled water 1 ml. The procedure of the test is as follows. [table] 1) A,B and C are mixed and maintained at 37° C. for 30 min. 2) D is added and maintained for just 30 min. 3) After 10 min±10 sec, they are took out and the reaction ends in a refrigerating condition by ice. 4) when comparing the absorbance the comparative samples, the absorbencies of comparative group are tested and then those of blank test group are test(at […]). Tyrosinase activity inhibition effect(%) us calculated in the following way and the result is shown as Table 2. Tyrosinase activity inhibition effect (%): [1−(E−B/C)]×100 (B: blank test group, C: control group, E: test group)

A short description of series [2]: Anti-oxidant effect, activated oxygen removal by NBT method. It is filed as biochemical. The note with it: 0.1%(wt/wt) sample solution; NBT absorbance at 560 nm; suppression ratio. As to the method:
And whitening activity and anti-oxidant activity were measured by determining tyrosinase inhibition effect and using NBT method. 0.1% vitamin C, 0.1% vitamin E, kojic acid and albutin were used as sample. To determine anti-oxidant effect, activated oxygen produced from xanthine and xanthine oxidase were measured using NBT method and activated oxygen removal effect of the tested materials was determined. Activated oxygen was produced by xanthine and xanthine oxidase. The activated oxygen was determined by measuring the blue color produced from the reaction of the activated oxygen and Nitroblue tetrasolium (NBT) at 560 nm of wavelength. 6) Xanthines oxidase solution: xanthine oxidase(Boehringer) was diluted about 100 times so that its blank test absorbance within the range of 0.2-0.23. In other word, the purified water was diluted so that the absorbance change be A560=0.3/20 min. (1)1,2,3,4 and 5 are introduced into vial bottle and 0.1 ml of sample solution is added, which are maintained at 5° C. for 10 min. (2) It is added by 6 and stirred immediately, followed by 20 min of culture at 25° C. (3) After 7 is added, the reaction is stopped. Then, absorbance (St) at 560 nm is measured. (4) Blank test is carried out in the same way except distilled water is used instead of sample solution and absorbance (Bt) is measured. 5) Blank test for sample is carried out in the same way except distilled water is used instead of 6 and absorbance (Bo) is measured. The effect is calculated in the following way. Suppression ratio (%)=[1−(St−So)/(Bt−Bo)×100

The test system of series [3] is collagen in the skin of hairless mice. As to the kind of experiment: Collagen formation effect, skin tissue test for collagen proliferation promoting effect. The note with it: 0.1%(wt/wt) 1,3-BG solution applied to body of hairless mice. It counts as in vivo. As to the method: To confirm the collagen formation effect of the synthesized 3,9-diferulylcoumestrol, 10 female hairless mice of 8week age were prepared. From the 2 mice, skin was taken out and standard dye samples were prepared using the side and middle part of the skin for investigation the collagen proliferation level. The other 8 mice were divided into two for the applied group and the control group.
In the same test condition, the whole body except head and belly of the applied group and the control group and were applied by 3,9-diferulycoumestrol 0.1%(wt/wt) 1,3-BG solution and 1,3-BG solution, for 15 days and 30 days.
From the applied group and the control group respectively, 2 mice were selected and their skins were cut out, then dyed samples were obtained from the side and middle part of the skin. After 30 days, skin dyed samples were obtained in the same way. For each of the obtained 10 dyed skin samples of the control group and the applied group, collagen proliferation promoting effect were compared on the basis of the skin condition of &week age. […] From the result, it was experimentally confirmed that 3,9diferulylcoumestrol is excellent in collagen synthesis and collagen proliferation promotion(FIG. 2)

The mark [4] stands for this setting: 24 hr, diluted in 1,3-butylenglycol.

Consider `COc1cc(C=CC(=O)Oc2ccc3c(c2)oc(=O)c2c4ccc(OC(=O)C=Cc5ccc(O)c(OC)c5)cc4oc32)ccc1O` [3,9-diferulylcoumestrol], for which, in series [1] (setting [4]), the “concentration range in which cell apoptosis did not show” value is not above 78 µM and the “concentration range in which cell apoptosis did not show (%)” value is on record as not above 0.0048%. Further, the Cell activity in series [1] is on record as 20%. Further, the “Tyrosinase inhibition effect (%)” value in the series on tyrosinase is on record as 76%. Further, in series [2], the “Anti-oxidant effect (%)” value is recorded as 42%. Further, in series [3] (after 2 weeks (15 days), vs control groups), the “collagen synthesis and proliferation in skin” value is “collagen synthesis and proliferation were found”. Also, the “collagen proliferation in corium layer and tissue density” value in series [3] (after 30 days) is “collagen proliferation in corium layer was increased and the tissue density was raised”.
With `OC[C@H]1O[C@@H](Oc2ccc(O)cc2)[C@H](O)[C@@H](O)[C@@H]1O` [Albutin], in the series on tyrosinase, the “Tyrosinase inhibition effect (%)” value was determined as 40%.
As to `O=C1O[C@H]([C@@H](O)CO)C(O)=C1O` [Ascorbic acid], in the series with tyrosinase, the “Tyrosinase inhibition effect (%)” value came out at 30%.
Consider `O=c1oc2cc(O)ccc2c2oc3cc(O)ccc3c12` [Coumestrol], for which, in series [1], the “Evaluation (LD50)” value is “Safe”, the “Evaluation (cell activity)” value is “excellent” and the Cell activity is 20%. In addition, in series [1] (24 hr), the LD50 % concentration was 0.0048% and the “LD50 mole concentration(mM)” value stood at 0.078 mM. In addition, the “Anti-oxidant effect (%)” value in series [2] is given as 28%.
For `O=c1cc(CO)occ1O` [Kojic acid], the “Tyrosinase inhibition effect (%)” value in the series with tyrosinase was 91%.
Consider Tocopherol, for which, in series [2], the “Anti-oxidant effect (%)” value worked out at 43%.
